The target in assay [1] is T1, Recombinant wild type LRRK2 protein (Homo sapiens, UniProt Q5S007).
T1 construct: purchased Life Technologies PR8604B
Kind of assay: LanthaScreen Kinase Activity Assay (TR-FRET), wild type LRRK2. Conditions: 25 μM ATP, 400 nM LRRKtide, 2.9 nM kinase, 60 min at room temperature, read-out: LRRK2 WT IC50. It counts as biochemical. As to the method: (§1) LRRK2 kinase activity was measured using a LanthaScreen™ Kinase Activity Assay from ThermoFisher Scientific. Recombinant wild type or G2019S-LRRK2 protein (Life Technologies, PR8604B or PV4881, respectively), was incubated with a fluorescein-labeled peptide substrate called LRRKtide that is based upon ezrin/radixin/moesin (ERM) (Life Technologies, PV4901) in the presence of ATP and serially diluted compound. After an incubation period of 1 hr, the phosphotransferase activity was stopped and a terbium-labelled anti-pERM antibody (Life Technologies, PV4899) was added to detect the phosphorylation of LRRKtide by measuring the time resolved-Forster resonant energy transfer (TR-FRET) signal from the terbium label on the antibody to the fluorescein tag on LRRKtide, expressed as the 520 nm/495 nm emission ratio. Compound-dependent inhibition of the TR-FRET signal was used to generate a concentration-response curve for IC50 determination.
(§2) The assay was carried out under the following protocol conditions: 1 mM compound in DMSO was serially diluted 1:3, 11 points in DMSO with a Biomek FX and 0.1 μL of the diluted compound was subsequently stamped into the assay plate (384-well format Lumitrac 200, Greiner, 781075) with an Echo Labcyte such that the final compound concentration in the assay was 10 μM to […]. Subsequently, 5 μL of 2× kinase solution (2.9 nM final concentration) was added to the assay plate in assay buffer composed of 50 mM Tris pH 8.5 (Sigma, T6791), 5 mM MgCl2 (Fluka, 63020), 1 mM EGTA (Sigma, E3889), 0.01% BRIJ-35 (Sigma, P1254) and 2 mM DTT. The reaction was started by addition of 2×ATP/LRRKtide solution in assay buffer such that the final concentration was 400 nM LRRKtide and 25 μM ATP. After 60 min incubation at room temperature, the reaction was stopped by addition of […] containing a final concentration of 2 nM anti-pERM antibody and 10 mM EDTA. After a 30 min incubation at RT, the TR-FRET signal was measured on a Wallac 2104 EnVision® multilabel reader at an excitation wavelength of 340 nm and reading emission at 520 nm and 495 nm. The ratio of the 520 nm and 495 nm emission was used to analyze the data.

For assay [2], the target named is T2, Recombinant G2019S-LRRK2 protein (Homo sapiens, UniProt Q5S007, G2019S).
T2 construct: purchased Life Technologies PV4881
Kind of assay: LanthaScreen Kinase Activity Assay (TR-FRET), G2019S-LRRK2. The class given is biochemical. Conditions: class symbols; 25 μM ATP, 400 nM LRRKtide, 2.9 nM kinase, 60 min at room temperature. Here is the method:
as §1, §2
Background: TR-FRET usually uses a lanthanide donor and a delayed reading to cut background.

The mark [3] stands for this setting: numeric bound instead of class symbol.

The structures appear in SMILES notation. Like-named read-outs stand apart in the source and are kept apart here.

T2 sequence (Q5S007 whole entry G2019S): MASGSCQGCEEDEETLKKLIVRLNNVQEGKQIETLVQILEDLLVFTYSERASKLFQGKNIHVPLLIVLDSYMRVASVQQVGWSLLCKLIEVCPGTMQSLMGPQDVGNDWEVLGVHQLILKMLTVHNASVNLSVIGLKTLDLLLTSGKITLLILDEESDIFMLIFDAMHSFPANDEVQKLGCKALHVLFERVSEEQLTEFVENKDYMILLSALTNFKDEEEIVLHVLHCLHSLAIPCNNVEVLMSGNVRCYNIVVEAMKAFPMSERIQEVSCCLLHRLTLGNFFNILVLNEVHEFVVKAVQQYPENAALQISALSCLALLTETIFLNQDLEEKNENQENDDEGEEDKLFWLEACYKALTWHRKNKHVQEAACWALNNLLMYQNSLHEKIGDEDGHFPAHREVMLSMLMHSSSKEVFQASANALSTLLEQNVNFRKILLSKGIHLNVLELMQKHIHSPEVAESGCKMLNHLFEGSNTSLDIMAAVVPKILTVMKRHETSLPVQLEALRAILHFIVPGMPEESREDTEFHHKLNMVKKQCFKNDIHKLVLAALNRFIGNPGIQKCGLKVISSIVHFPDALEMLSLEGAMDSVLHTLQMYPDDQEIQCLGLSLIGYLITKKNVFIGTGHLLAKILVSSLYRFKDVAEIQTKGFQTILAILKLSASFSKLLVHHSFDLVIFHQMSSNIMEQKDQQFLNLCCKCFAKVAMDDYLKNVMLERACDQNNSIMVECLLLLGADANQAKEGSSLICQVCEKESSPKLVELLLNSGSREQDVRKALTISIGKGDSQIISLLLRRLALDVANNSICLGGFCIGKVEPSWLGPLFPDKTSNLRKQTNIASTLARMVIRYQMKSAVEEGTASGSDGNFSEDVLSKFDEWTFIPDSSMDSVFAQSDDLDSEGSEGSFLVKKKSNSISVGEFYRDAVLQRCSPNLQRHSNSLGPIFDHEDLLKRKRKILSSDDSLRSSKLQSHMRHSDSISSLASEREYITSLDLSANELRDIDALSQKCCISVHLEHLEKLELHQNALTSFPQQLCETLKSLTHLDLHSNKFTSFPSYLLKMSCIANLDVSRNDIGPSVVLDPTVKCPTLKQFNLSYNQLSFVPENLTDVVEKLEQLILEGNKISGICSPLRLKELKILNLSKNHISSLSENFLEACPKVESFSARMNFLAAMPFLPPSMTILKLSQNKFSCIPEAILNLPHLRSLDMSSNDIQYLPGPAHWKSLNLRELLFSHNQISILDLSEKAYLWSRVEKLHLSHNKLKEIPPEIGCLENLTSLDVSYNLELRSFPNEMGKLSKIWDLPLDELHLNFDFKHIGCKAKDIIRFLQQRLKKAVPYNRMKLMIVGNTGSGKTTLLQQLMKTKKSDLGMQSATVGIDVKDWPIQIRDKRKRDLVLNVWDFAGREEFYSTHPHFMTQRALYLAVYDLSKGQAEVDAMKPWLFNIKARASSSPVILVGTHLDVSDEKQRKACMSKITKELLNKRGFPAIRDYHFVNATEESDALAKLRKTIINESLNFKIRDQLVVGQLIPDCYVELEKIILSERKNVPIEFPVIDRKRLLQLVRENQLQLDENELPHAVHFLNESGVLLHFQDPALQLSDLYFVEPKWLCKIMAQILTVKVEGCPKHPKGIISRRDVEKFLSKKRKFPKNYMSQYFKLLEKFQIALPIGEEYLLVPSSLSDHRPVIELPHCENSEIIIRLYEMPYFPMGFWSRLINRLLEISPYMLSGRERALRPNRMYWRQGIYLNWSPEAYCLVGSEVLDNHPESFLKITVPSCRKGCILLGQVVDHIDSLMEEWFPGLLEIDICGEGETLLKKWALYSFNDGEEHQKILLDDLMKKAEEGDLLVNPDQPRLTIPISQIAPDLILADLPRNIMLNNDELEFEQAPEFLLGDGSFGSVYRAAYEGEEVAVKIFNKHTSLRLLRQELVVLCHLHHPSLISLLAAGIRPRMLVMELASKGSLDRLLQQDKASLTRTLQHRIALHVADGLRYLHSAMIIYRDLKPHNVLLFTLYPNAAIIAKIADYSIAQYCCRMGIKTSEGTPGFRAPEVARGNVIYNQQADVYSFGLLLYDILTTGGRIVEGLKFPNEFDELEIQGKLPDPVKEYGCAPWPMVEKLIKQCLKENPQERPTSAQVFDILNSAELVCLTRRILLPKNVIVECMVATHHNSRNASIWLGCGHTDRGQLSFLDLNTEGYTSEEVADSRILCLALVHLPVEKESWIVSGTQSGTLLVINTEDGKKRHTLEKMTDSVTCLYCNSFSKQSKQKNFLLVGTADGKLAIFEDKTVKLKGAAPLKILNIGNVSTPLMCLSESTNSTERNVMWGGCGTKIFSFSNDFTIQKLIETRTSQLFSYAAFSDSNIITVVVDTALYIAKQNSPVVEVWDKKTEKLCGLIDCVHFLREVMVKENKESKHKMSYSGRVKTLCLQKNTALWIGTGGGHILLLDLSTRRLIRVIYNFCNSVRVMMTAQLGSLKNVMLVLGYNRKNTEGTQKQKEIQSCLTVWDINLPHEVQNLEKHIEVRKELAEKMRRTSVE
T1 sequence (Q5S007 whole entry): as the sequence (Q5S007 whole entry G2019S) above, with S2019G counted along it

The term IC50 denotes the concentration that inhibits the measured activity by half. For `Cn1cc2nc(C(=O)Nc3ccc4[nH]nc(-c5cnco5)c4c3)ccc2n1` [Example 166, 2-Methyl-N-(3-(oxazol-5-yl)-1H-indazol-5-yl)-2H-pyrazolo[4,3-b]pyridine-5-carboxamide], the figures for the IC50 in assay [1] (class symbols) and in assay [2] were 100 to 1000 nM and at most 100 nM, respectively.
Take `COc1ccc(C)cc1-c1n[nH]c2ccc(NC(=O)c3c(F)cc4c(cnn4C)c3F)cc12` [Example 89, 4,6-Difluoro-N-(3-(2-methoxy-5-methylphenyl)-1H-indazol-5-yl)-1-methyl-1H-indazole-5-carboxamide]: the IC50 in assay [1] (class symbols) was 100 to 1000 nM; in assay [2], at most 100 nM.
As to `O=C(Nc1ccc2[nH]nc(-c3ccccc3)c2c1)c1c(Cl)cn2cnnc2c1Cl` [Example 63, 6,8-dichloro-N-(3-phenyl-1H-indazol-5-yl)-[1,2,4]triazolo[4,3-a]pyridine-7-carboxamide], the IC50 in assay [1] (class symbols) and in assay [2] was at most 100 nM in each case.
For the molecule `Cn1ncc2c(F)c(C(=O)Nc3ccc4[nH]nc(-c5cccnc5)c4c3)c(F)cc21` [Example 32, 4,6-Difluoro-1-methyl-N-(3-(pyridin-3-yl)-1H-indazol-5-yl)-1H-indazole-5-carboxamide], the IC50 in assay [1] (class symbols) and in assay [2] was at most 100 nM throughout.
Turning to `Cc1noc(C)c1-c1n[nH]c2ccc(NC(=O)c3c(F)cc4c(cnn4C)c3F)cc12` [Example 36, N-(3-(3,5-Dimethylisoxazol-4-yl)-1H-indazol-5-yl)-4,6-difluoro-1-methyl-1H-indazole-5-carboxamide], the IC50 in assay [1] (setting [3]) is over 10000 nM; in assay [2] it was 1000 to 10000 nM.
For the molecule `Cn1cnc2cc(C(=O)Nc3ccc4[nH]nc(-c5ccoc5)c4c3)ccc21` [Example 132, N-(3-(Furan-3-yl)-1H-indazol-5-yl)-1-methyl-1H-benzo[d]imidazole-5-carboxamide], the IC50 in assay [1] (class symbols) and in assay [2] was 100 to 1000 nM in each case.
On to `Cc1n[nH]c2ccc(NC(=O)c3ccc4nnc(C)n4c3)cc12` [Example 8, 3-Methyl-N-(3-methyl-1H-indazol-5-yl)-[1,2,4]triazolo[4,3-a]pyridine-6-carboxamide], for which the half-maximal inhibitory concentration (IC50) in assay [1] (class symbols) and in assay [2] was 1000 to 10000 nM throughout.
Take `COc1cncc(-c2n[nH]c3ccc(NC(=O)c4c(F)cc5c(cnn5C)c4F)cc23)c1` [Example 82, 4,6-Difluoro-N-(3-(5-methoxypyridin-3-yl)-1H-indazol-5-yl)-1-methyl-1H-indazole-5-carboxamide]: the concentration for half-maximal inhibition (IC50) in assay [1] (class symbols) and in assay [2] was at most 100 nM in each case.
Turning to `O=C(Nc1ccc2[nH]nc(-c3ccoc3)c2c1)c1ccc2snnc2c1` [Example 121, N-(3-(Furan-3-yl)-1H-indazol-5-yl)benzo[d][1,2,3]thiadiazole-5-carboxamide], the IC50 in assay [1] (class symbols) and in assay [2] was at most 100 nM throughout.
As to `Cc1nc2cncn2c(C)c1C(=O)Nc1ccc2[nH]nc(-c3ccoc3)c2c1` [Example 112, N-(3-(Furan-3-yl)-1H-indazol-5-yl)-2,4-dimethylimidazo[1,5-a]pyrimidine-3-carboxamide], the results for the IC50 in assay [1] (class symbols) and in assay [2] were 100 to 1000 nM and at most 100 nM, respectively.
The matching figures for `Cn1ncc2c(F)c(C(=O)Nc3ccc4[nH]nc(-c5ccc(N6CCOCC6)cc5)c4c3)c(F)cc21` [Example 94, 4,6-Difluoro-1-methyl-N-(3-(4-morpholinophenyl)-1H-indazol-5-yl)-1H-indazole-5-carboxamide]: at most 100 nM and at most 100 nM.
For `Cc1cc2cc[nH]c2cc1C(=O)Nc1ccc2[nH]nc(-c3ccccc3)c2c1` [Example 22, 5-Methyl-N-(3-phenyl-1H-indazol-5-yl)-1H-indole-6-carboxamide], the IC50 lay within 1000 to 10000 nM in assay [1] (class symbols) and 100 to 1000 nM in assay [2].
Take `Cc1cc2nn(C)nc2cc1C(=O)Nc1ccc2[nH]nc(C)c2c1` [Example 3, 2,6-Dimethyl-N-(3-methyl-1H-indazol-5-yl)-2H-benzo[d][1,2,3]triazole-5-carboxamide]: the IC50 in assay [1] (class symbols) and in assay [2] was 1000 to 10000 nM each time.
On to `Cn1ncc2c(F)c(C(=O)Nc3ccc4[nH]nc(-c5cnn(C(F)F)c5)c4c3)c(F)cc21` [Example 86, N-(3-(1-(Difluoromethyl)-1H-pyrazol-4-yl)-1H-indazol-5-yl)-4,6-difluoro-1-methyl-1H-indazole-5-carboxamide], for which the IC50 in assay [1] (class symbols) and in assay [2] was at most 100 nM throughout.
`O=C(Nc1ccc2[nH]nc(-c3ccoc3)c2c1)c1ccn2ccnc2c1` [Example 118, N-(3-(Furan-3-yl)-1H-indazol-5-yl)imidazo[1,2-a]pyridine-7-carboxamide]: the IC50 in assay [1] (class symbols) and in assay [2] was 100 to 1000 nM each time.
For the molecule `O=C(Nc1ccc2[nH]nc(-c3ccoc3)c2c1)C1CCc2cncn2C1` (single isomer, unassigned) [Example 173a], the results for the IC50 in assay [1] (class symbols) and in assay [2] were 100 to 1000 nM and at most 100 nM, respectively.
The matching figures for `Cn1cc(-c2n[nH]c3ccc(NC(=O)c4c(F)cc5c(cnn5C)c4F)cc23)c(C(F)(F)F)n1` [Example 92, 4,6-Difluoro-1-methyl-N-(3-(1-methyl-3-(trifluoromethyl)-1H-pyrazol-4-yl)-1H-indazol-5-yl)-1H-indazole-5-carboxamide]: 100 to 1000 nM and at most 100 nM.
In the same order, the values of `Cc1cc2cnnn2c(C)c1C(=O)Nc1ccc2[nH]nc(-c3ccoc3)c2c1` [Example 150, N-(3-(Furan-3-yl)-1H-indazol-5-yl)-5,7-dimethyl-[1,2,3]triazolo[1,5-a]pyridine-6-carboxamide] are at most 100 nM and at most 100 nM.
For `Cc1cc2cnnn2c(C)c1C(=O)Nc1ccc2[nH]nc(-c3ccccc3)c2c1` [Example 48, 5,7-Dimethyl-N-(3-phenyl-1H-indazol-5-yl)-[1,2,3]triazolo[1,5-a]pyridine-6-carboxamide], the IC50 in assay [1] (class symbols) and in assay [2] was at most 100 nM throughout.
With `Cc1cc2[nH]cnc2cc1C(=O)Nc1ccc2[nH]nc(-c3ccccc3)c2c1` [Example 19, 6-Methyl-N-(3-phenyl-1H-indazol-5-yl)-1H-benzo[d]imidazole-5-carboxamide], the figures for the IC50 in assay [1] (class symbols) and in assay [2] were 100 to 1000 nM and at most 100 nM, respectively.
In the same order, the values of `Cc1cc2cncn2cc1C(=O)Nc1ccc2[nH]nc(C)c2c1` [Example 145, 7-Methyl-N-(3-methyl-1H-indazol-5-yl)imidazo[1,5-a]pyridine-6-carboxamide] are 100 to 1000 nM and at most 100 nM.
Take `O=C(Nc1ccc2[nH]nc(-c3ccoc3)c2c1)C1CCc2cncn2C1` (single isomer, unassigned) [Example 173b]: the IC50 in assay [1] (class symbols) and in assay [2] was 1000 to 10000 nM in each case.
With `Cc1cc2c(cnn2C)nc1C(=O)Nc1ccc2[nH]nc(-c3cnco3)c2c1` [Example 160, 1,6-Dimethyl-N-(3-(oxazol-5-yl)-1H-indazol-5-yl)-1H-pyrazolo[4,3-b]pyridine-5-carboxamide], the IC50 in assay [1] (class symbols) and in assay [2] was at most 100 nM in each case.
For the molecule `Cc1cc2nn[nH]c2cc1C(=O)Nc1ccc2[nH]nc(Br)c2c1` [Example 15, N-(3-Bromo-1H-indazol-5-yl)-5-methyl-1H-benzo[d][1,2,3]triazole-6-carboxamide], the results for the IC50 in assay [1] (class symbols) and in assay [2] were 1000 to 10000 nM and at most 100 nM, respectively.
As for `Cn1cc2cc(C(=O)Nc3ccc4[nH]nc(-c5cnco5)c4c3)ncc2n1` [Example 159, 2-Methyl-N-(3-(oxazol-5-yl)-1H-indazol-5-yl)-2H-pyrazolo[3,4-c]pyridine-5-carboxamide], the IC50 in assay [1] (class symbols) and in assay [2] was at most 100 nM each time.
For the molecule `Cn1ncc2c(F)c(C(=O)Nc3ccc4[nH]nc(-c5ccccc5C#N)c4c3)c(F)cc21` [Example 74, N-(3-(2-Cyanophenyl)-1H-indazol-5-yl)-4,6-difluoro-1-methyl-1H-indazole-5-carboxamide], the results for the IC50 in assay [1] (setting [3]) and in assay [2] were over 10000 nM and 100 to 1000 nM, respectively.
Regarding `Cc1cc2cncn2c(C)c1C(=O)Nc1ccc2[nH]nc(C)c2c1` [Example 55, 5,7-Dimethyl-N-(3-methyl-1H-indazol-5-yl)imidazo[1,5-a]pyridine-6-carboxamide], the IC50 in assay [1] (class symbols) is 1000 to 10000 nM; in assay [2] it was at most 100 nM.
As to `Cc1n[nH]c2ccc(NC(=O)c3c(Cl)cn4cnnc4c3Cl)cc12` [Example 56, 6,8-Dichloro-N-(3-methyl-1H-indazol-5-yl)-[1,2,4]triazolo[4,3-a]pyridine-7-carboxamide], the IC50 in assay [1] (class symbols) is 100 to 1000 nM; in assay [2], at most 100 nM.

The values are drawn from patent US20220162192A1 (ESCAPE Bio, Inc., priority 2019, published 2022).
